These results are taken from patent US11246818B2, “Peptides and compositions for use in cosmetics” (LIPOTRUE, S.L., priority 2017, dated 2022).

Residues, ends and D or L forms follow the SMILES beside them.

Common to all, as to assay type: cell-based
Assay [1] concerns Primary human epidermal keratinocytes. As to the kind of experiment: Protection against glycation induced by heavy metals (Advanced Glycation End products, competitive ELISA). The settings on record: all concentrations tested (0.01, 0.05, 0.1 mg/ml), 48 hours. Here is the method: Primary human epidermal keratinocytes were seeded in 96-well plates in standard culture medium and, 24 hours later, subjected to a simultaneous treatment with heavy metals (containing a mixture of Fe, Pb and Cr) and peptide Ac-SEQ ID NO: 1-NH2 for 48 hours. Levels of Advance Glycation End (AGE) products were measured by means of a competitive ELISA assay with absorbance at 450 nm.
A general note: In an ELISA, binding on a coated surface is turned into a signal by an enzyme label.

For assay [2] the test system is unchanged. As to the kind of experiment: Protection against oxidative stress (reactive oxygen species) induced by hydrogen peroxide. The settings on record: all concentrations tested. On the procedure: Columns from left to right in the x-axis of FIG. 4(A) correspond to: basal state (cells to which no treatment is applied), positive control, negative control of oxidation (sample treated with 1 mM ascorbic acid) and treatments with Ac-SEQ ID NO: 1-NH2 concentrations of 0.001 mg/ml, 0.005 mg/ml and 0.01 mg/ml, respectively. […] Columns from left to right in the x-axis of FIG. 3(B) correspond to: basal state (cells to which no treatment is applied), positive control, negative control (sample treated with 1 mM ascorbic acid) and treatments with Ac-SEQ ID NO: 2-NH2 concentrations of 0.001 mg/ml, 0.005 mg/ml, 0.01 mg/ml and 0.05 mg/ml, respectively.
Primary human epidermal keratinocytes were seeded in black 96 well-plates in the corresponding culture medium and, 48 hours later, treated with the different compounds analysed (Ac-SEQ ID NO: 1-NH2 or Ac-SEQ ID NO: 2-NH2) for 3 hours at 37° C. or with ascorbic acid as an antioxidant control. After incubation, cells were loaded with a fluorescence probe for 45 minutes and then H2O2 was added for 30 minutes.
Finally, fluorescence was determined at Excitation 485 nm/Emission 520 nm.

Assay [3] shares this test system. As to the kind of experiment: Protection against DNA oxidation induced by synthetic smoke (8-OHdG, competitive ELISA). The settings on record: synthetic smoke 48 h. On the procedure:
Primary human epidermal keratinocytes were seeded in 96-well plates in standard culture medium and, 24 hours later, subjected to a simultaneous treatment with synthetic smoke containing selected compounds from the particle phase (for example, cadmium and nicotine) and vapour phase (for example, formaldehyde (hereinafter, FA) and ethyl carbamate) of tobacco smoke and the analysed compound (Ac-SEQ ID NO: 1-NH2) for 48 h.
After treatment, cells were lysed and DNA oxidation on cell homogenates was analysed measuring levels of 8-OHdG by means of a competitive ELISA assay with absorbance at 450 nm.

Take `CC(=O)N[C@@H](CC(=O)O)C(=O)N[C@@H](Cc1ccc(O)cc1)C(=O)N[C@@H](CCCCN)C(=O)N[C@H](C(N)=O)C(C)C` [Ac-SEQ ID NO: 1-NH2, Ac-Asp-Tyr-Lys-Val-NH2] (Ac-DYKV-NH2): the “quantity of advanced glycation end-products” value in assay [1] is on record as “statistically significant decrease”. For the same compound, in assay [2], the “activity against hydrogen peroxide induced reactive oxygen species compared with Ac-SEQ ID NO: 2-NH2” value is on record as “increased activity in all concentrations tested”. Moreover, the “protection of DNA oxidation” value in assay [3] (0.1 mg/ml) is “almost complete inhibition of the effects of synthetic smoke”. For the same compound, the “DNA oxidation (8-OHdG)” value in assay [3] (lower tested concentration (0.01 mg/ml)) is “slight decrease (non-statistically significant)”; in assay [3] (other two tested concentrations (0.05, 0.1 mg/ml)), “higher, statistically significant, effect”.
